According to US10588879B2, “Treatment of age-related macular degeneration” (Aurin Biotech Inc., priority 2011, dated 2020):
Read-outs that look alike come from different tables or passages of the source.

Key:
[1] = test system: classical complement pathway; assay: CH50 assay, human serum, sensitized sheep red blood cell hemolysis; assay type: cell-based; details: sensitized sheep red blood cells, 1 hour at 37° C., read-out: IC50, inhibition of human complement-mediated red blood cell hemolysis
Method: To evaluate the strength of blockade of the classical complement pathway by the low molecular weight products of the aurin tricarboxylic acid complex, (i.e. ATA plus AQA plus AHA), the standard CH50 assay was employed. Sheep red blood cells were sensitized by incubation overnight with rabbit anti sheep red blood cell antibody. Then dilutions of serum, with and without various amounts of the low molecular weight aurin tricarboxylic acid fraction (ATAC), were incubated with the sensitized red blood cells for 1 hour at 37° C. The incubates were centrifuged at 5,000 rpm for 10 min. The hemoglobin released into the serum from red blood cells that had been destroyed by complement attack, was determined by reading the optical density (OD) at 405 nm. As a positive control, red blood cells were 100% lysed with water, and as a negative control, no serum was added to the incubate.

[2] = molecular target: T1, membrane attack complex (addition of C9 to C5b678) (Homo sapiens, UniProt P02748); assay: Western blot variation of CH50 assay: stage of complement blockade; assay type: biochemical; details: human serum diluted 16 fold, pre-treated 30 min; blots with antibodies to C6, C7, C8, C9
T1 construct: from tissue; host or cells: normal human serum (with antibody-sensitized sheep red blood cells)
Method: Normal human serum was pre-treated with aliquots of aqueous solutions of ATA, AQA, AHA and ATAC prior to adding sheep red blood cells sensitized to human complement. The reaction mixtures were incubated at 37° C. for 1 h. Aliquots were loaded on 10% polyacrylamide gels and subjected to SDS-PAGE. Proteins were transferred to membranes and developed with appropriate primary antibodies to complement proteins (Table 1): FIG. 4A: Western blots of membranes developed with antibodies to C1q, C3, C4 and C5. Lane 1, untreated serum; lane 2, serum with red blood cells added; lane 3 serum with red blood cells protected with ATAC. Notice that in untreated serum, bands for C1q, C3, C4, and C5 were readily detected. In lanes 2 and 3, the activated products C3d, C4d, and C5a were detected indicating opsonization had taken place. […] It can be seen that C5b-9 is […] detected upon probing with C6, C7, C8 and C9, thus establishing that the ATAC block was at the C9 stage. […]
To determine at which stage of assembly of the membrane attack complex was being blocked, additional analyses were carried. […] The C6 antibody detected C5b6, C5b67, and C5b678. The C7 antibody detected C5b67 and C5b678, while the C8 antibody detected C5b678. […]

T1 sequence (P02748 22-559, one chain of several): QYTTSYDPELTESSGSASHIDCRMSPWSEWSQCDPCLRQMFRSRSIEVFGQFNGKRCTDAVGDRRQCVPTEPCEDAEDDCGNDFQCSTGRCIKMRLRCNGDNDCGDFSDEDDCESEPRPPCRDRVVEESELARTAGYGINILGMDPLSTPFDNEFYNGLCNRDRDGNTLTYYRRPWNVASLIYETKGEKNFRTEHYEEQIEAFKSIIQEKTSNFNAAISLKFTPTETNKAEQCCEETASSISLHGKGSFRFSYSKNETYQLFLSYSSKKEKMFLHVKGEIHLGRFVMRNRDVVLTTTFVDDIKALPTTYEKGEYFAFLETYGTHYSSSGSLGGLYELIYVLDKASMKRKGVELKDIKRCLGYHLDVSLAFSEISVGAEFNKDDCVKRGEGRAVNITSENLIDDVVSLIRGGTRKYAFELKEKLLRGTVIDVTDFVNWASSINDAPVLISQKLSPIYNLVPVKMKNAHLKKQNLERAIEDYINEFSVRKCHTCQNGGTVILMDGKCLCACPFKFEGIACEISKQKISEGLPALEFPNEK

| Compound | IC50 [1] [nM] | stage at which membrane attack complex formation is arrested [2] | IC50 ([1]; Erythrocyte) [nM] |
| --- | --- | --- | --- |
| 5,5′-((3-carboxy-5-((3-carboxy-4-oxocyclohexa-2,5-dien-1-ylidene)methyl)-4-hydroxybenzyl)-4-hydroxyphenyl)methylene)bis(2-hydroxybenzoic acid) [AHA] | 559 | becomes arrested at the C8 stage | – |
| O=C(O)C1=CC(=Cc2cc(C(c3ccc(O)c(C(=O)O)c3)c3ccc(O)c(C(=O)O)c3)cc(C(=O)O)c2O)C=CC1=O [AQA] | 576 | becomes arrested at the C8 stage | – |
| O=C(O)C1=CC(=C(c2ccc(O)c(C(=O)O)c2)c2ccc(O)c(C(=O)O)c2)C=CC1=O [ATA, 5,5′-((3-carboxy-4-oxocyclohexa-2,5-dienn-1-ylidene)methylene)bis(2-hydroxybenzoic acid)] | – | – | 544 |
